In patent US7226915B2, “Diaminopyrroloquinazolines compounds as protein tyrosine phosphatase inhibitors” (Hoffmann-La Roche Inc., priority 2003, dated 2007):
Counter-ions that a name gives are not always drawn.

molecular target: T1, Human PTP1B (1-321) (Homo sapiens, UniProt P18031); test: In vitro inhibition of PTP1B (PTPase assay); type: biochemical; details: one of two methods: phosphopeptide substrate TRDI(pY)E with Malachite Green, or DiFMUP fluorescence; pH 6.2; read-out: IC50 (PTP1B inhibitory activity)
T1 construct: Human PTP1B (1-321) was cloned from a human cDNA library; made in house; host or cells: E. coli
T1 sequence (P18031 1-321): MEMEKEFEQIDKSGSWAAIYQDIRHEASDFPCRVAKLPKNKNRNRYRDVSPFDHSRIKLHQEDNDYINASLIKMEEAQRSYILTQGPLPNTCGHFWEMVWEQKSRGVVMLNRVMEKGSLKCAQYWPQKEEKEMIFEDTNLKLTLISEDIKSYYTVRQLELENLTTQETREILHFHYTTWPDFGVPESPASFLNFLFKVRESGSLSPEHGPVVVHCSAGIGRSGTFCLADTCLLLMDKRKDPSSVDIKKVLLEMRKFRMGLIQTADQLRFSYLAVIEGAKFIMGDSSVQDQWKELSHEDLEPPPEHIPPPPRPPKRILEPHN
Protocol: Human PTP1B (1-321) was cloned from a human cDNA library using conventional molecular biology techniques. The cDNA sequence was identical to the published human PTP1B sequence (Accession number M33689). The protein was expressed and purified from E. coli as described by Barford D. et. al J. Mol Biol (1994) 239, 726–730.
The measurement of PTPase activity was carried out using one of two methods:
The first method for the measurement of PTP1B inhibitory activity a tyrosine phosphorylated peptide based on the amino acid sequence of insulin receptor tyrosine autophosphorylation site 1146 (TRDI(pY)E) was used as substrate. The reaction conditions were as follows:
PTP1B (0.5–2 nM) was incubated with compound for 15 min in buffer containing 37.5 mM Bis-Tris buffer pH 6.2, 140 mMNaCl, 0.05% BSA and 2 mM DTT. The reaction was started by the addition of 50 μM substrate. After 20 min at room temperature (22–25° C.), the reaction was stopped with KOH and the amount of free phosphate measured using Malachite Green as previously described (Harder et al. 1994 Biochem J. 298; 395).
The second method was used for the measurement of general PTPase inhibitory activity across a panel of PTPases the substrate (6,8-difluoro-4-methylumbelliferyl phosphate (DiFMUP; from Molecular Probes) was used at the Km for each enzyme. The buffer conditions were identical as in the Malachite Green assay. The reaction was stopped with KOH. In this case the dephosphoryated product becomes fluorescent and the fluorescense read (Excitiation:360 mM/Emmission: 460 nM).

| IC50 | Compound |
| --- | --- |
| 11.3 µM | Nc1nc(NCCO)c2c(cc(-c3ccccc3C(F)(F)F)c3c2ccn3CCO)n1 [Example 8, 2-[3-Amino-7-(2-hydroxy-ethyl)-6-(2-trifluoromethyl-phenyl)-7H-pyrrolo[3,2-f]quinazolin-1-ylamino]-ethanol trifluoro-acetic acid salt] |
| 9.47 µM | CN(C)c1nc(N)nc2cc(-c3ccccc3C(F)(F)F)c3c(ccn3C)c12 [Example 4, 7,N1,N1-Trimethyl-6-(2-trifluoromethyl-phenyl)-7H-pyrrolo[3,2-f]quinazoline-1,3-diamine trifluoro-acetic acid salt] |
| 10.2 µM | Cn1ccc2c3c(NCCCO)nc(N)nc3cc(-c3ccccc3C(F)(F)F)c21 [Example 6, 3-[3-Amino-7-methyl-6-(2-trifluoromethyl-phenyl)-7H-pyrrolo[3,2-f]quinazolin-1-ylamino]-propan-1-ol trifluoro-acetic acid salt] |
| 7.1 µM | Cc1ccc(-c2cc3nc(N)nc(NCCO)c3c3ccn(C)c23)s1 [Example 2, 2-[3-Amino-7-methyl-6-(5-methyl-thiophen-2-yl)-7H-pyrrolo[3,2-f]quinazolin-1-ylamino]-ethanol trifluoro-acetic acid salt] |
